Results published in patent publication US5102884A, “Substituted benzoylurea compounds or their salts, processes for their production and antitumour compositions containing them” (Ishihara Sangyo Kaisha Ltd., priority 1989, dated 1992).

Legend:
P-388 leukemia [1] = assay: Antitumour activity, Test Example 1 (intraperitoneally transplanted--intraperitoneally administered); assay type: in vivo, BDF1 mouse; conditions: i.p., days 1 and 8, mortality observed 30 days, saline control = 0%; for ILS at 50 mg/kg: 50 mg/kg/day active ingredient; for ILS at 6.25 mg/kg: 6.25 mg/kg/day active ingredient; for ILS at 100 mg/kg: 100 mg/kg/day active ingredient
Method: 1×10^6 of P-388 leukemia cells per mouse were intraperitoneally transplanted into BDF1 mouse. […] The increase life span of each group was determined on such basis that the medium survival time of a control group to which physiological saline was administered was regarded to be 0% of increase life span (ILS). […] | (Note) *Increase life span is calculated by the following equation: | Increase life span % (ILS) =- | [drawing 18]

P-388 leukemia [2] = assay: Antitumour activity, Test Example 2 (intraperitoneally transplanted--intravenously injected); assay type: in vivo, BDF1 mouse; conditions: 10 mg/kg (active ingredient mg/kg/day), i.v. from the tail, days 1 and 8; fatty emulsion (Formulation Example 10); saline control = 0%
Method: 1×10^6 of P-388 leukemia cells per mouse were intraperitoneally transplanted to BDF1 mouse. Each formulation (formulated in accordance with the below-mentioned Formulation Example 10) was intravenously injected from the tail on days 1 and 8 after the transplantation.
The increase life span (ILS, %) of each treated group was determined on such basis that the median survival time of a control group to which a physiolosical saline was administered was regarded to be 0% of increase life span (ILS). In the cases where Compounds No. 1 and No. 11 were administered at a dose (active ingredient mg/kg/day) of 10 mg/kg, ILS (%) was 46 and 27, respectively. (Note) * The increase life span was calculated in the
same manner as in Test Example 1.

[3] = Solubility to a non-aqueous solvent, Test Example 3; assay type: physicochemical; conditions: 18° to 20° C.; for Solubility, Medium chain triglyceride: medium chain triglyceride (ODO)
Method: A stirring magnet was put into a 10 ml or 100 ml egg plant flask equipped with a stopper, and 50 mg of a test compound was introduced into this flask. Further, a suitable amount of a desired solvent was introduced thereinto, and the solubility was determined.

[4] = 12.5 mg/kg/day active ingredient
[5] = Mus musculus, P388, ip, 720 h, 12.5 mg/kg/day active ingredient, read-out: Increase life span (ILS)
[6] = Mus musculus, P388, ip, 720 h, 25 mg/kg/day active ingredient, read-out: Increase life span (ILS)
[7] = Mus musculus, P388, ip, 720 h, read-out: Increase life span (ILS)

Row | Compound | ILS at 12.5 mg/kg (P-388 leukemia [1]; [5]) [%] | ILS at 25 mg/kg (P-388 leukemia [1]; [6]) [%] | ILS at 50 mg/kg (P-388 leukemia [1]; [7]) [%] | further results
1 | Cc1cc(NC(=O)NC(=O)c2ccccc2N(C)C)ccc1Oc1ncc(Br)cn1 [Compound 1, N-[4-(5-bromo-2-pyrimidinyloxy)-3methylphenyl]-N'-[2-(dimethylamino)benzoyl]urea] |  |  |  | Increase life span (ILS) (P-388 leukemia [1]; [4]): 126%; Increase life span (ILS) (P-388 leukemia [1]; 25 mg/kg/day active ingredient): 183%; Increase life span (ILS) (P-388 leukemia [2]): 46%; Solubility, Medium chain triglyceride [3]: 2.1-2.3%; Solubility, Soybean oil [3]: 0.46-0.49%
2 | Cc1cc(NC(=O)NC(=O)c2ccccc2N(C)C)ccc1Oc1ncc(Br)cn1.Cl [Compound 2, N-[4-(5-bromo-2-pyrimidinyloxy)-3methylphenyl]-N'-[2-(dimethylamino)benzoyl]urea hydrochloride] |  |  |  | Increase life span (ILS) (P-388 leukemia [1]; [4]): 94%; Increase life span (ILS) (P-388 leukemia [1]; 25 mg/kg/day active ingredient): 206%
3 | Cc1cc(NC(=O)NC(=O)c2c(F)cccc2N(C)C)ccc1Oc1ncc(Br)cn1 [Compound 3] | 50 | 150 |  | 
4 | CN(C)c1cccc(F)c1C(=O)NC(=O)Nc1ccc(Oc2ncc(Br)cn2)c(Cl)c1 [Compound 4] |  |  | 135 | 
5 | CN(C)c1ccccc1C(=O)NC(=O)Nc1ccc(Oc2ncc(Br)cn2)c(C(F)(F)F)c1 [Compound 9, N-[4-(5-bromo-pyrimidinyloxy)-3-trifluoromethylphenyl]-N'-[2(dimethylamino)benzoyl]urea] | 80 |  |  | 
6 | CN(C)c1ccccc1C(=O)NC(=O)Nc1ccc(Oc2ncc(Cl)cn2)c(C(F)(F)F)c1 [Compound 10, N-[4-(5-chloro-2-pyrimidinyloxy)-3-trifluoromethylphenyl]-N'-[2-(dimethylamino)benzoyl]urea] | 39 |  |  | 
7 | Cc1cc(NC(=O)NC(=O)c2ccccc2N(C)C)ccc1Oc1ncc(Cl)cn1 [Compound 11, N-[4-(5-chloro-2-pyrimidinyloxy)-3methylphenyl]-N'-[2-(dimethylamino)benzoyl]urea] |  | 99 | 132 | Increase life span (ILS) (P-388 leukemia [2]): 27%; Solubility, Medium chain triglyceride [3]: 1.5-1.8%; Solubility, Soybean oil [3]: 0.15-0.16%
8 | CN(C)c1ccccc1C(=O)NC(=O)Nc1ccc(Oc2ncc(Br)cn2)c([N+](=O)[O-])c1 [Compound 13] |  |  | 27 | 
9 | Nc1ccccc1C(=O)NC(=O)Nc1ccc(Oc2ncc(Br)cn2)c(Cl)c1 [Compound 26, N-(2-aminobenzoyl)-N'-[4-(5-bromo-2-pyrimidinyloxy)-3-chlorophenyl]urea] | 93 | > 137 |  | 
10 | Cc1cc(NC(=O)NC(=O)c2ccccc2N)ccc1Oc1ncc(Br)cn1 [Compound 27, N-(2-aminobenzoyl)-N'-[4-(5-bromo-2-pyrimidinyloxy)-3-methylphenyl]urea] | 126 | 160 |  | 
11 | CCN(CC)c1ccccc1C(=O)NC(=O)Nc1ccc(Oc2ncc(Br)cn2)c(C)c1 [Compound 33] |  | 49 |  | Solubility, Soybean oil [3]: at least 13.6%
12 | Cc1cc(NC(=O)NC(=O)c2ccccc2N2CCOCC2)ccc1Oc1ncc(Br)cn1 [Compound 34, N-[4-(5-bromo-2-pyrimidinyloxy)-3-methylphenyl]-N'-(2-morpholinobenzoyl)urea] |  |  |  | ILS at 6.25 mg/kg (P-388 leukemia [1]; [7]): 49%
13 | COc1cc(NC(=O)NC(=O)c2ccccc2N(C)C)ccc1Oc1ncc(Cl)cn1 [Compound 35] |  |  |  | ILS at 100 mg/kg (P-388 leukemia [1]; [7]): 27%; ILS at 200 mg/kg (P-388 leukemia [1]; Mus musculus, P388, ip, 720 h, 200 mg/kg/day active ingredient, read-out: Increase life span (ILS)): 53%
14 | CN(C)c1ccccc1C(=O)NC(=O)Nc1ccc(Oc2ncc(Cl)cn2)c([N+](=O)[O-])c1 [Compound 36] |  |  |  | ILS at 100 mg/kg (P-388 leukemia [1]; [7]): 68%
15 | CC(=O)Nc1ccccc1C(=O)NC(=O)Nc1ccc(Oc2ncc(Br)cn2)c(C)c1 [Compound 49, N-[2-(acetylamino]benzoyl]-N'-[4-(5-bromo-2-pyrimidinyloxy)-3-methylphenyl]urea] | 39 | 59 |  | 
16 | CCCC(=O)Nc1ccccc1C(=O)NC(=O)Nc1ccc(Oc2ncc(Br)cn2)c(C)c1 [Compound 50] |  | 49 | 150 | 
17 | CCCCCCCCC(=O)Nc1ccccc1C(=O)NC(=O)Nc1ccc(Oc2ncc(Br)cn2)c(C)c1 [Compound 51] |  |  | 184 | 
18 | CC(=O)N(C)c1ccccc1C(=O)NC(=O)Nc1ccc(Oc2ncc(Br)cn2)c(C)c1 [Compound 52] | 139 |  |  | ILS at 6.25 mg/kg (P-388 leukemia [1]; [7]): 39%
19 | Cc1cc(NC(=O)NC(=O)c2ccccc2N(S(C)(=O)=O)S(C)(=O)=O)ccc1Oc1ncc(Br)cn1 [Compound 54] |  |  | 49 | 
